Data set [1] has as its system eosinophils. Briefly: Biosynthesis of 14,15-LTC4 and LTC4 in eosinophils (RP-HPLC). Format: cell-based, human. Particulars: arachidonic acid (10 μM), 5 min, 37° C.; one line per donor 1-11. The method, then:
(§1) Human eosinophils contain abundant amounts of both 15-lipoxygenase and 5-lipoxygenase. […] The cells were incubated for five minutes at 37° C. and the amounts of 14,15-LTC4 and LTC4 were analyzed with RP-HPLC. […] Therefore, measurement of these metabolites is considered to reflect the total formation of 15-lipoxygenase derived cysteinyl-containing 14,15-leukotrienes and 5-lipoxygenase derived cysteinyl-containing leukotriens, respectively.
Isolated eosinophils (1-20×10^6/sample) were resuspended in phosphate buffered saline (1 ml/sample) and pre-incubated for 2 minutes in 37° C. (in presence or absence of indomethacin, 1 μM) prior to stimulation with ionophore A23187 (1 μM)/arachidonic acid (1 or 10 μM)/A23187 plus arachidonic acid/PGD2 (1 μM)/LTC4 (1 μM)/IL-5 (10 ng/ml)/14,15-LTC4 (10 μM) or 14,15-LTD4 (10 μM) for indicated time periods at 37° C. The incubations were terminated by addition of one volume of methanol (for analysis by RP-HPLC). For subsequent analysis by enzyme immunoassay (EIA), reactions were terminated by rapid cool off, 0° C., before centrifugation at 1200×g, 5 min. Supernatants were transferred to cryo tubes and stored in −70° C. until analyzed.
In order to get rid of cellular debris and proteins, centrifugation at 1200×g for 5 min. was performed. Supernatants were evaporated under reduced pressure and the residues resolved in methanol and transferred to a test tube. Samples were thereafter evaporated to dryness under a stream of nitrogen, and finally resuspended in 200 μl mobile phase (acetonitril:methanol:H20:acetic acid, 29:19:72:0.8, pH adjusted to 5.6 with NH3 for analysis of leukotrienes and 14,15-leukotrienes, and methanol:water:trifluoroacetic acid 70:30:0.007 for analysis of monohydroxy acids). The extracted samples were subjected to analysis in a reverse phase HPLC system as described. Briefly, samples were applied to a octadecyl reverse phase column (Chromabond ^18C, Macherey-Nagel, Duren, Germany) and elution rate was 1.2 ml/minute.

In data set [2] the test system is cord blood derived mast cells. Briefly: Biosynthesis of 14,15-LTC4 in IL-4 primed cord blood derived mast cells (EIA). Format: cell-based, human. The following applies: arachidonic acid (10 μM), 5 min, n=3. The method, then: Mast cells play a key role in the pathophysiology of asthma. Recently, we reported that interleukin-4 (IL-4) induced the expression of 15-LO-1 in human cord blood derived mast cells in vitro and that mast cells express 15-LO-1 in vivo (4). Therefore, it was of interest to investigate if mast cells could produce 14,15-leukotrienes. IL-4 primed mast cells were incubated with arachidonic acid (10 μM) for 5 min. Supernatants were collected and analyzed using an EIA against 14,15-LTC4. Under these conditions, human mast cells released 0.8+/−0.6 pmol/10^6 cells, (n=3), indicating the capacity to synthesise and release immunoreactive 14,15-LTC4 after arachidonic acid stimulation.
Prior to incubation, CBMC cells were primed for four days with IL-4 (10 ng/ml). After mechanical removal and washing in PBS, cells were resuspended in PBS and pre-incubated with or without indomethacin (1 μM) for 2 minutes in 37° C. The CBMC cells were subsequently incubated in 37° C. with arachidonic acid for indicated time periods. Incubations were terminated either by addition of one volume of methanol (LC-MS analysis) or by rapid cool off, 0° C., and subsequently analyzed by EIA.

Data set [3] concerns confluent bovine endothelium cells. As to the kind of experiment: Endothelial cell barrier function (TEER), Example 6a. Format: cell-based. Here is the method:
Bovine aorta endothelial cells (BAEC) and human umbilical vein endothelial cells (HUVEC) were isolated and cultured with calf serum or human serum. BAEC or HUVEC in the first to fifth passages were detached by brief (2 min) trypsin-EDTA treatment (0.25% trypsin/0.01% EDTA) and replated onto 3.0 μm pore size polycarbonate filters (Tissue Culture inserts, 10 mm; NUNC, Roskilde, Denmark) or, for the purpose of visual inspection, 0.2 μm pore size Anopore inorganic membrane (transparent when wet). In order to promote cellular differentiation and enhance attachment of EC, the filters were pretreated with 50 μl Biomatrix 1 (167 μg/ml) and air-dried. EC were seeded at a density of 2×10^5 cells per filter and incubated in culture medium at 37° C. in a humidified atmosphere of 5% CO2 in air. The EC were grown to confluent monolayers, as assessed by daily microscopic observation, in transparent 0.2 μm pore size filters and measurement of the electrical resistance across the monolayer. Under these experimental conditions maximal resistance is obtained at day 7 postseeding, at which day the EC monolayers were then used in the experiments.
Rapid changes in endothelial cell (EC) barrier function in response to various arachidonic acid metabolites were analysed through continuous registration of transendothelial electrical resistance (TEER) with electrodes on each side of EC monolayer^18. For measurement of TEER, the filter insert with ECs was transferred to a resistance measurement chamber (Endohm-12, World Precision Instruments, Sarasota, Fla., USA) modified so as to assure exact positioning of the electrodes in relation to each other and to the filter insert daring repeated measurements. The chamber (low compartment) and the filter insert (upper compartment) were filled with 2 ml and 400 μl culture medium, respectively. All measurements were made at 37° C. with the equipment placed in a cell culture incubator. Direct readings of the electrical resistance were given by an ohmmeter (Evom, World Precision Instruments, Sarasota, Fla., US) connected to the electrodes of the resistance chamber. The electrical resistance of individual EC monolayers was obtained by subtracting the resistance of the corresponding naked filter coated with Biomatrix as measured prior to seeding of the EC. Thus, TEER values represent the resistance of the EC monolayer solely and depend on the development of tight junctions between adjoining endothelial cells.

The test system of the next data set is neutrophils. Briefly: Oxidative metabolism of neutrophils, lucigenin-enhanced chemiluminescence. The class given is cell-based, human. The method, then: Neutrophil and eosinophil granulocytes were purified from peripheral whole blood using a Percoll gradient and the magnetic cell separation system (MACS).
Granulocytes were primed for 30 minutes at 37° C. with either IL-5 (10.5 ng/mL) or GM-CSF (10.5 ng/mL) and subsequently stimulated with IL-5 (100 ng/mL), GM-CSF (100 ng/mL), LTB4 (10^−7M) or Eoxin (10^−8-10^−6M). Oxidative metabolism was measured by a lucigenin-enhanced chemiluminescence (CL) assay.

Data set [4] in a line: Non-enzymatic metabolism during incubation at 37° C. Format: physicochemical. The following applies: 60 min incubation at 37° C. The method, then: In order to analyze if eosinophils can metabolize 14,15-LTC4 to 14,15-LTD4 and 14,15-LTE4, eosinophils were incubated with synthetic 14,15-LTC4 or 14 (R)-cysteinyl-glycyl-15(S)-hydroxy-5,8,10,12(Z,Z,E,E)-eicosatetraenoic acid (14,15-LTD4) for 60 min at 37° C. The metabolites formed were analyzed with product ion scan at 497.2 m/z for 14,15-LTD4 and 440.2 m/z for 14,15-LTE4. The retention time and mass spectrum of a product formed (Metabolite 2) from 14,15-LTC4 were identical to synthetic 14,15-LTD4 (FIG. 30B), and a product formed (Metabolite 3) after incubation with 14,15-LTD4 had identical retention time and mass spectrum as synthetic 14 (R)-cysteinyl-15(S)-hydroxy-5,8,10,12(Z,Z,E,E)-eicosatetraenoic (14,15-LTE4) (FIG. 30C). […] (data not shown). Basically, the product ion mass spectra of 14,15-leukotrienes and corresponding 5-lipoxygenase derived cysteinyl-leukotrienes are almost identical. However, 14,15-leukotrienes form a fragment at 205 m/z, whereas the corresponding fragment in 5-lipoxygenase derived cysteinyl-leukotrienes is at 189 m/z (FIG. 31). These collision induced dissociation products are probably formed by a cleavage next to the carbon where the cysteinyl group is positioned, which is at carbon 14 for 14,15-leukotrienes and carbon 6 for leukotrienes.

In data set [5] the test system is eosinophils. As to the kind of experiment: Metabolism in eosinophils after 5 min of incubation. Particulars: 5 min of incubation, 37° C. Here is the method:
as §1

Data set [6] has as its system guinea pig pulmonary parenchymal strip or ileum. The following applies: cited from earlier work.
The test system of data set [7] is human endothelial cell (EC) monolayers. Format: cell-based. Particulars: no granulocytes present.
Description: To explore the ability of 14,15-LTC4 and its metabolites 14,15-LTD4 and 14,15-LTE4 to induce alterations in vascular permeability, an established in vitro permeability assay based on assessment of changes in electrical resistance across human endothelial cell (EC) monolayers was used. Maximum stimulus-induced change in EC resistance in this model reaches down to approximately −70%.
Human umbilical vein endothelial cells (HUVEC) were isolated and cultured as previously described (24). The cells were seeded onto 3 μm pore size polycarbonate filters (Tissue Culture inserts, 10 mm; NUNC, Roskilde, Denmark) at a density of 2×10^5 cells and grown to confluent monolayers. The capacity of arachdonic acid metabolites to induce changes in barrier function of endothelial cell (EC) monolayers was analyzed through continuous registration of transendothelial electrical resistance (TEER) (24). For measurement of TEER, the filter insert with ECs was transferred to a resistance measurement chamber (Endohm-12, World Precision Instruments, Sarasota, Fla., USA) modified so as to assure exact positioning of the electrodes in relation to each other and to the filter insert during repeated measurements. […] The electrical resistance of individual EC monolayers was obtained by subtracting the resistance of the corresponding naked filter coated with Biomatrix as measured prior to seeding of the EC. […]

Several values for one entry are separate records, joined by “and”; a condition that tells them apart may be missing. Equal values may be shown once.

As for `CCCCC/C=C\C/C=C\C/C=C\C/C=C\CCCC(=O)O` [Arachidonic acid], in the data set on eosinophils [1], the “14,15-LTC4” value is 58 pmol/10^7 and 74 pmol/10^7 and 34 pmol/10^7 and 12 pmol/10^7 and 26 pmol/10^7 and 46 pmol/10^7 and 16 pmol/10^7 and 22 pmol/10^7 and 48 pmol/10^7 and 40 pmol/10^7 and 32 pmol/10^7; the LTC4 was 34 pmol/10^7 and 12 pmol/10^7 and 20 pmol/10^7 and 0 pmol/10^7 (4×) and 6 pmol/10^7 and 10 pmol/10^7 and 38 pmol/10^7 and 22 pmol/10^7. Moreover, in data set [2], the “14,15-LTC4 released by mast cells” value is on record as 0.8+/−0.6 pmol/10^6 cells.
For `CCCCC[C@H](O)[C@@H](/C=C/C=C/C=C\C/C=C\CCCC(=O)O)SC[C@H](NC(=O)CC[C@H](N)C(=O)O)C(=O)NCC(=O)O` [EoxC4, 14 (R)-glutathionyl-15 (S)-hydroxy-5,8,10,12 (Z,Z,E,E)-eicosatetraenoic acid], the “plasma leakage / change in TEER” value in data set [3] (10^−7 and 10^−8 M) is “induce significant plasma leakage”. Besides, in data set [3] (FIG. 22), the “potency relative to the most potent 5-lipoxygenase derived leukotrienes” value was “about five to ten times less potent”. Moreover, the “radical production by GM-CSF primed neutrophils” value in the data set with neutrophils (GM-CSF (10.5 ng/mL) primed, Eoxin 10^−8-10^−6M) is recorded as “induced the radical production by GM-CSF primed neutrophils in a dose-dependent manner”. In the data set on neutrophils (GM-CSF primed neutrophils), the responders is reported as 7-8 subjects of 13. Moreover, in data set [4], the non-enzymatic metabolism result was “no non-enzymatic metabolism”. The metabolism in eosinophils entry with eosinophils [5] is listed as “almost no metabolism”. In data set [6] (Drazen et al. 1981), the bronchoconstriction result is “did not induce bronchoconstriction”. The contractile effects entry in data set [6] (guinea pig pulmonary parenchymal strip or ileum) is “appear not to have contractile effects”.
Turning to `CCCCC/C=C\C[C@@H](O)/C=C/C=C/C=C\[C@@H](O)CCCC(=O)O` [LTB4, leukotriene B4], the “effect on EC barrier function” value in data set [7] was “no effect”. Besides, the “oxygen free radical production by non-primed neutrophils” value with neutrophils (non-primed blood neutrophils, GM-CSF 100 ng/mL, LTB4 10^−7M, Eoxin 10^−8-10^−6M) is listed as “induced the oxygen free radical production”.

Values taken from patent US20090247634A1, “Methods for identifying modulators of eoxin formation” (priority 2006, published 2009).
